Test results from patent US8735443B2, “Method of treating diabetes-related vascular complications” (Kuwait University, priority 2008, dated 2014).

Experiments:
[1] = system: HEK-499 cells; test: Viability of cells exposed to cisplatin; type: cell-based; settings: 500 microMolar α-lipoic acid in the media prior to cisplatin at variable doses
Text: (§1) Alpha-lipoic acid increased HEK-499 cells, which were engineered to be resistant to chemotherapies and radiotherapies by depleting Raf Kinase inhibitory protein resistance to lethal doses of cisplatin, a chemical used in cancer therapy.

[2] = system: TNF-α; test: Plasma TNF-α ELISA; type: in vivo, rat; settings: GK rats, LA chronic therapy
Experimental: Plasma TNF-α levels from various experimental groups were determined using a rat TNF-α ELISA kit, and tissue protein content was determined using bovine serum albumin as a standard.

[3] = system: gp 91^phox; test: Aortic mRNA expression by real-time PCR, gp 91phox; type: in vivo, rat; settings: aorta of LA-treated GK rats
Experimental: Further, with regard to quantitative real-time polymerase chain reactions (PCR) in the study, total RNA from the arterial samples was isolated using TRIZOL® reagent, and RNA integrity was verified by agarose gel electrophoresis and quantified by spectrophotometry. Reverse transcription reaction of total RNA (5 μg) was performed using a superscript 111 first-strand synthesis system. Quantitative real-time PCR was performed using fast SYBR Green QPCR. […]
The housekeeping gene beta-actin was used for internal normalization. Fidelity of the PCR reaction was determined by melting temperature analysis. PCR efficiency for each primer pair was determined by quantitating amplification with increasing concentration of template cDNA. […] RNA expression of target genes was calculated based on the real-time PCR efficiency E and the threshold crossing point (CP) and is expressed relative to the reference gene beta-actin.

[4] = system: IL-6; test: Aortic mRNA expression by QRT-PCR, IL-6; type: in vivo, rat; settings: GK rats, LA therapy
Experimental: An expression of a number of inflammatory markers, including IL-6 and ICAM-1, were measured in control, diabetic and LA-treated diabetic vessels. The results confirmed marked elevation in the vascular expression of both […] and ICAM-1 during diabetes, as shown in FIGS. 11A and 11B. […] Aortic expression of IL-6 is shown in FIG. 11A and aortic expression of intracellular adhesion molecule (ICAM-1) is shown in FIG. 11B. Both were determined using QRT-PCR based techniques.

[5] = system: NF-κB; test: NF-κB expression by western blotting, HEK-293; type: cell-based; settings: HEK-293 (parental cells) exposed to α-lipoic acid
Text: as §1

[6] = system: caspase 3/7; test: Caspase 3/7 activity in aorta (APO-ONE assay); type: in vivo, rat; settings: chronic LA treatment, GK rats
Experimental: (§2) For detection of caspase 3-like activity, protein was isolated and caspase activity was detected in resulting supernatant using an APO-ONE homogenous caspase 3/7 assay (Promega). With regard to subcellular fractionation and western blotting, aortic tissue nuclear extracts were prepared and protein (40 μg) was loaded in each well of […] polyacrylamide gel. Separated polypeptide was transferred to nitrocellulose membrane IBio-Rad) and probed with anti NFκB at a 1:2,000 […]. Chemiluminescent detection was performed by an ECL Western Blotting Detection Kit®.

[7] = system: thiobarbituric acid reactive substances; test: Aortic content of TBARS (lipid peroxidation); type: in vivo, rat; settings: aorta of LA-treated GK rats
Experimental: With regard to lipid peroxidation, aortic tissues were homogenized in ice-cold tris-hydrochloric acid/buffer (pH 7.4) and butylated hydroxytoluene (BHT). Homogenates were centrifuged at 3,000×g at 4° C. for 10 min. An aliquot of the supernatant was combined with N-methyl-2-phenylindol (10.3) mmol/l in acetonitrile and methanol in the presence of methane sulfonic acid and BHT and the amount of malondialdehyde and 4-hydroxy-2-nonenal was assessed.

[8] = system: NF-κB; test: Aortic nuclear NF-κB, western blotting; type: in vivo, rat; settings: GK rats, LA chronic therapy
Experimental: as §2
It is well known that TNF-α enhances the activity of NF-κB, most probably via H202 mediated mechanisms. Using data showing that both TNF-α and H202 levels were elevated in diabetic vascular tissues, NF-κB activity was assessed using a western blotting-based technique with an antibody (anti P65) that specifically recognizes the active form of this transcription factor. […] Nuclear localization of NF-κB in aortic tissues was determined using differential centrifugation and western blotting-based techniques.

O=C(O)CCCCC1CCSS1 (stereo not drawn) [LA, alpha-lipoic acid]
protection of cells from lethal doses of cisplatin [1]: significantly protected | diabetes related up-regulation of TNF-α protein (plasma) [2]: Reversal | rate of gene expression of pg 91^phox subunit [3]: tended to reduce | diabetic vascular proinflammatory phenotype, aortic expression of IL-6 [4]: partially reversed | NF-κB expression [5]: significant increase | reduction of caspase 3/7 in diabetic arteries [6]: 48% | oxidative stress-mediated damage to lipid (TBARS) [7]: partially reversed | high NF-κB level in vascular diabetic nuclei [8]: reversed
